IC50 data for ten compounds are collected here from patent US11440913B2, “Aminoimidazopyridazines as kinase inhibitors” (BRISTOL-MYERS SQUIBB COMPANY, priority 2017, dated 2022).

Counter-ions that a name gives are not always drawn. Like-named read-outs stand apart in the source and are kept apart here.

The target in assay [1] is His-GST-TVMV-hRIPK1(1-324) (Homo sapiens (Human), UniProt Q13546). In words: RIPK1 HTRF Binding Assay. The following applies: HTRF binding, 1 h at rt, read-out: RIPK1 (IC50). Summed up: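 HTRF probe-displacement binding: 1 nM His-GST-TVMV-hRIPK1(1-324) (baculovirus construct), 90.6 nM probe, 0.2 nM anti-GST-Tb in 20 mM HEPES, 10 mM MgCl2, 0.015% Brij-35, 4 mM DTT, 0.05 mg/mL BSA. Incubated 1 h at rt; FRET 520/495 nm ratio, inhibition relative to DMSO-only wells.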
Chain of His-GST-TVMV-hRIPK1(1-324) (Q13546 1-324): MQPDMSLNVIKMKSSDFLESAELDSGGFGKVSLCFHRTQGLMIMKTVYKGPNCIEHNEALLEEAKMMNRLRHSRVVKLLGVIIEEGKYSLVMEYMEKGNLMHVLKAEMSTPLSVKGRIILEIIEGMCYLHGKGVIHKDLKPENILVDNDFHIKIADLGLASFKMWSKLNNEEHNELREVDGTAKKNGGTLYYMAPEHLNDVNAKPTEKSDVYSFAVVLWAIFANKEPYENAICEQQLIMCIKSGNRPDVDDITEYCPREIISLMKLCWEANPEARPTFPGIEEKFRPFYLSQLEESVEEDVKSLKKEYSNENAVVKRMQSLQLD
(TR-FRET usually uses a lanthanide donor and a delayed reading to cut background.)

Assay [2] relates to MLKL phosphorylation in HT29-L23 human colorectal adenocarcinoma cells. In words: MLKL Phosphorylation High-Content Assay. In kind it is cell-based. The following applies: 6 h, necroptosis induced with TNFα, SMAC mimetic and Z-VAD, read-out: pMLKL (IC50). The essentials: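 HT29-L23 cells pretreated 30 min at 37 °C with compound (6.25 to 0.106 μM final), then necroptosis induced with TNFα 35 ng/mL, SMAC mimetic 700 nM and Z-VAD 140 nM for 6 h. Fixed cells immunostained for MLKL pS358 and imaged; IC50 and Ymax from 4-parameter logistic fit.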

As to `COc1ncc(-c2ccc3nc(NC(C)=O)cn3n2)cc1C(=O)NCc1cc(F)cc(F)c1OCC(C)C` [Example 116, N-{[3,5-difluoro-2-(2-methylpropoxy)phenyl]methyl}-5-{2-acetamidoimidazo[1,2-b]pyridazin-6-yl}-2-methoxypyridine-3-carboxamide], the figures for the IC50 in assay [1] and in assay [2] (Homo sapiens) were 10 nM and 3 nM, respectively.
For `COc1ncc(-c2ccc3nc(NC(C)=O)cn3n2)cc1C(=O)NCc1ccccc1OCC(C)C` [Example 117, 5-{2-acetamidoimidazo[1,2-b]pyridazin-6-yl}-2-methoxy-N-{[2-(2-methyl-propoxy)phenyl]methyl}pyridine-3-carboxamide], in that order: 6 nM and 19 nM.
For `COc1ncc(-c2ccc3nc(NC(C)=O)cn3n2)cc1C(=O)NCc1cc(F)cc(F)c1OC1CC1` [Example 118, N-[(2-cyclopropoxy-3,5-difluorophenyl)methyl]-5-{2-acetamidoimidazo[1,2-b]pyridazin-6-yl}-2-methoxypyridine-3-carboxamide], in that order: 2 nM and 28 nM.
For `COc1ncc(-c2ccc3nc(NC(C)=O)cn3n2)cc1C(=O)NCC[C@H](O)c1ccc(Cl)cc1` [Example 119, N-[(3S)-3-(4-chlorophenyl)-3-hydroxypropyl]-5-{2-acetamidoimidazo[1,2-b]pyridazin-6-yl}-2-methoxypyridine-3-carboxamide], in that order: 116 nM and 94 nM.
Consider `COc1ncc(-c2ccc3nc(NC(C)=O)cn3n2)cc1C(=O)NCc1ccc(F)cc1OC(F)(F)F` [Example 120, 5-{2-acetamidoimidazo[1,2-b]pyridazin-6-yl}-N-{[4-fluoro-2-(trifluoromethoxy)phenyl]methyl}-2-methoxypyridine-3-carboxamide], for which the IC50 in assay [1] amounted to 170 nM; in assay [2] (Homo sapiens), 383 nM.
Regarding `COc1ncc(-c2ccc3nc(NC(C)=O)cn3n2)cc1C(=O)NCc1cc(F)cc(F)c1OCC1CC1` [Example 121, N-({2-[cyclopropyl(deutero)methoxy]-3,5-difluorophenyl}methyl)-5-{2-acetamidoimidazo[1,2-b]pyridazin-6-yl}-2-methoxypyridine-3-carboxamide], the values for the IC50 in assay [1] and in assay [2] were 3 nM and 9 nM, respectively.
With `COc1ncc(-c2ccc3nc(NC(C)=O)cn3n2)cc1C(=O)NC(C)c1c(F)cccc1OCC1CC1` (centres unmarked) [Example 122, N-{1-[2-(cyclopropylmethoxy)-6-fluorophenyl]ethyl}-5-{2-acetamidoimidazo[1,2-b]pyridazin-6-yl}-2-methoxypyridine-3-carboxamide, TFA], the IC50 in assay [1] (TFA) turned out to be 5 nM; in assay [2] (TFA), 15 nM.
Take `COc1ncc(-c2ccc3nc(NC(C)=O)cn3n2)cc1C(=O)NC(C)c1cccc(OC(F)(F)F)c1` (centres unmarked) [Example 123, 5-{2-acetamidoimidazo[1,2-b]pyridazin-6-yl}-2-methoxy-N-{1-[3-(trifluoro-methoxy)phenyl]ethyl}pyridine-3-carboxamide]: the IC50 in assay [1] amounted to 37 nM; in assay [2] (Homo sapiens), 218 nM.
Take `COc1ncc(-c2ccc3nc(NC(C)=O)cn3n2)cc1C(=O)NC(C)c1c(F)cccc1OCC1CC1` (centres unmarked) [Example 124, N-{1-[2-(cyclopropylmethoxy)-6-fluorophenyl]ethyl}-5-{2-acetamidoimidazo[1,2-b]pyridazin-6-yl}-2-methoxypyridine-3-carboxamide, TFA]: the IC50 in assay [1] (TFA) was 6 nM; in assay [2] (TFA), 14 nM.
For `COc1ncc(-c2ccc3nc(NC(C)=O)cn3n2)cc1C(=O)NC(C)c1cccc(OC(F)(F)F)c1` (centres unmarked) [Example 125, 5-{2-acetamidoimidazo[1,2-b]pyridazin-6-yl}-2-methoxy-N-{1-[3-(trifluoro-methoxy)phenyl]ethyl}pyridine-3-carboxamide], the IC50 in assay [1] was found to be 34 nM; in assay [2], 153 nM.

One may read the IC50 as the concentration at which inhibition is half-maximal.
